Measurements published in US20110275693A1, “Pharmaceutical Compositions Comprising 2-Oxo-1-Pyrrolidine Derivatives” (UCB PHARMA, S.A., priority 2009, published 2011).

Assays:
rat hippocampal slices [1] = experiment: Epileptiform responses in hippocampal slices (field potentials, CA3 area); type: cell-based, Sprague-Dawley rats; set-up: rate of spontaneous field bursting in HKLCF: dose or concentration left out as unconfirmed; conditions: for evoked epileptiform responses (PS1 amplitude, repetitive PSs) in HKLCF: CA3 area, fimbrial stimulation, high-K+/low-Ca2+ fluid
Protocol: The effect of brivaracetam on epileptiform responses induced by high-K+/low-Ca2+ concentrations or by bicuculline was examined in transverse hippocampal slices prepared from Sprague-Dawley rats according to previously reported standard procedures. The epileptiform responses were induced by passing from a normal perfusion of artificial cerebrospinal fluid (ACSF) (K+3 mM; Ca2+2.4 mM) to either high-K+/low-Ca2+ fluid (HKLCF) (K+7.5 mM; Ca2+0.5 mM) or to […] bicuculline methiodide (BMI)-containing ACSF.
Extracellular field potentials (FPs) were recorded in the CA3 area of the slices with 2 M NaCl-filled glass microelectrodes. The evoked FPs were recorded at 10-min intervals in response to fimbrial stimulation with constant current rectangular pulses that elicit a single population spike (PS) of 50-75% of the maximal amplitude when the slice is in ACSF. In the HKLCF model, 2 min of spontaneous activity were also recorded, in the middle of each 10-min interval between the recordings of evoked responses.
Either brivaracetam or levetiracetam was added to the bathing fluid of the slices 20 min before shifting from ACSF to either HKLCF or […] BMI-containing ACSF, and was kept in the perfusion fluid throughout the experiment.

amygdala-kindled rats = experiment: Fully amygdala-kindled rats; type: in vivo, rat; conditions: for dose significantly reducing the after-discharge duration: 212.3 is the highest brivaracetam dose tested
[2] = tested on: genetically sound-sensitive male mice; experiment: Audiogenic seizures in mice; type: in vivo; conditions: audiogenic seizure-susceptible mice; brivaracetam i.p. 30 min, levetiracetam i.p. 60 min pretreatment
Protocol: Audiogenic seizures in mice: Genetically sound-sensitive male mice (16-28 g; n=10 per group), responding with wild running, clonic and tonic convulsions to an acoustic stimulation, were used. Audiogenic seizures were induced by an acoustic stimulus (90 dB, 10-20 kHz) applied for 30 s. The mice were pretreated with either saline, brivaracetam (i.p., 30 min) or levetiracetam (i.p., 60 min), and the proportion of mice protected against clonic convulsions was used as the end point to assess anticonvulsant activity.

[3] = tested on: pentylenetetrazol-induced clonic convulsions in mice; experiment: Chemically induced seizures in mice (pentylenetetrazol); type: in vivo; conditions: i.p. 30 min before seizure induction, higher ED50 values than audiogenic model
Protocol: The dose was selected based on dose-effect curves in saline-treated animals as the convulsive dose inducing clonic convulsions of all four extremities in 97% of the animals. Immediately after administration of the chemoconvulsant, the mice were placed individually in small plastic cages (25 13 8 cm) and observed for the presence of clonic convulsions in all four extremities, for 60 min. The occurrence of tonic convulsions (hindlimb extension) and mortality was also recorded during this interval. The proportion of mice protected against clonic convulsions was calculated and used as the end point for anticonvulsant activity.

GAERS rats = experiment: Spontaneous SWDs in GAERS rats; type: in vivo, rat
corneally kindled mice = experiment: Corneal kindling of mice; type: in vivo
epilepsy patients = conditions: adult patients, adjunctive treatment; cited from earlier work
[4] = tested on: patients with post-herpetic neuralgia; conditions: cited from earlier work
rat hippocampal slices [5] = conditions: cited from earlier work

Compound	rate of spontaneous field bursting in HKLCF (rat hippocampal slices [1])	evoked epileptiform responses (PS1 amplitude, repetitive PSs) in HKLCF (rat hippocampal slices [1])	dose from which significant suppression in motor-seizure severity is induced (amygdala-kindled rats)	dose significantly reducing the after-discharge duration (amygdala-kindled rats)	protection against the expression of clonic convulsions [2]	protection against clonic convulsions induced by pentylenetetrazol [3]	dose from which spontaneous SWDs are significantly suppressed (GAERS rats)	dose giving complete inhibition of spontaneous SWDs (GAERS rats; highest dose tested)	incidence of generalized motor seizures after termination of treatment (corneally kindled mice; continued corneal stimulations, group previously treated with the highest dose)	incidence of generalized motor seizures (corneally kindled mice; pretreatment during corneal kindling of mice)	efficacy in the treatment of epilepsy (epilepsy patients)	efficacy in the treatment of post-herpetic neuralgia [4]	epileptiform responses induced by high-K+/low-Ca2+ concentrations in the perfusion fluid and by bicuculline (rat hippocampal slices [5])
CCC[C@@H]1CC(=O)N([C@@H](CC)C(N)=O)C1 [Brivaracetam, (2S)-2-[(4R)-2-oxo-4-propyl-pyrrolidin-1-yl] butanamide]	reduced the rate of this spontaneous bursting	reduced these epileptiform responses	≥ 21.2 mg/kg	212.3 mg/kg	protected against the expression of clonic convulsions	protected against clonic convulsions induced by pentylenetetrazol	≥ 2.1 mg/kg	67.9 mg/kg	persistent reduction in the incidence of generalized motor seizures	significant reduction in the incidence of generalized motor seizures	effective in the treatment of epilepsy	effective in the treatment of patients with post-herpetic neuralgia	–
CC[C@@H](C(N)=O)N1CCCC1=O [Levetiracetam]	–	reduced these epileptiform responses	≥ 170 mg/kg	> 1700 mg/kg	protected against the expression of clonic convulsions	–	–	–	–	–	–	–	reduces epileptiform responses
CC[C@@H](C(N)=O)N1C[C@H](C=C(F)F)CC1=O [Seletracetam, (2S)-2-[(4S)-4-(2,2-difluorovinyl)-2-oxo-pyrrolidin-1-yl]butanamide]	–	–	–	–	–	–	–	–	–	–	effective in the treatment of epilepsy	–	–
